For assay [1], the system named is HCT-116 KRAS G13D (colon). Briefly: MTT assay. In kind it is cell-based. As to conditions: Homo sapiens, HCT-116, 72 h; Table 5; 3 days incubation; read-out: MTT assay IC50 KRAS mutant (Colon) HCT-116 KRAS G13D. A digest of the protocol:
(§1)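 Cells were seeded at line-dependent density and stabilised overnight at 37 °C, then exposed to compounds for 3 days at 37 °C. MTT was then added for 2 h and the formazan dissolved in DMSO.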
A general note: Formazan colour is commonly taken as a measure of viable cells.

The test system of another assay is WiDR BRAF V600E (colon). Briefly: MTT assay. It is filed as cell-based. As to conditions: Homo sapiens, 72 h, Table 5, 3 days incubation, read-out: MTT assay IC50 BRAF mutant (Colon) WiDR BRAF V600E. A digest of the protocol:
as §1

A further assay has as its system HUVEC (VEGF). Briefly: MTT assay. The conditions noted are these: Homo sapiens, 72 h, Table 5, 3 days incubation. In kind it is cell-based. A digest of the protocol:
as §1

The subject of the next assay is LS513 KRAS G12V (colon). Briefly: MTT assay. It is filed as cell-based. As to conditions: Homo sapiens, LS-513, 72 h, 3 days incubation, read-out: MTT assay IC50 KRAS mutant (Colon) LS513 KRAS G12V. A digest of the protocol:
as §1

The subject of the next assay is SW620 KRAS G12V (colon). Briefly: MTT assay. In kind it is cell-based. As to conditions: Homo sapiens, SW-620, 72 h; Table 5; 3 days incubation; read-out: MTT assay IC50 KRAS mutant (Colon) SW620 KRAS G12V. A digest of the protocol: as §1
The target of a further assay is C-Raf (Homo sapiens (Human), UniProt P04049). Briefly: Raf kinase inhibitory activity (Raf/MEK1/MAPK2 cascade, MBP phosphorylation, 32P). In kind it is biochemical. As for the experimental part: (§2) In order to examine the inhibitory activities of the compounds of the present invention against Raf kinases (B-Raf, C-Raf, B-Raf^V600E), the following experiment was performed.
C-Raf, sequence (P04049 whole entry): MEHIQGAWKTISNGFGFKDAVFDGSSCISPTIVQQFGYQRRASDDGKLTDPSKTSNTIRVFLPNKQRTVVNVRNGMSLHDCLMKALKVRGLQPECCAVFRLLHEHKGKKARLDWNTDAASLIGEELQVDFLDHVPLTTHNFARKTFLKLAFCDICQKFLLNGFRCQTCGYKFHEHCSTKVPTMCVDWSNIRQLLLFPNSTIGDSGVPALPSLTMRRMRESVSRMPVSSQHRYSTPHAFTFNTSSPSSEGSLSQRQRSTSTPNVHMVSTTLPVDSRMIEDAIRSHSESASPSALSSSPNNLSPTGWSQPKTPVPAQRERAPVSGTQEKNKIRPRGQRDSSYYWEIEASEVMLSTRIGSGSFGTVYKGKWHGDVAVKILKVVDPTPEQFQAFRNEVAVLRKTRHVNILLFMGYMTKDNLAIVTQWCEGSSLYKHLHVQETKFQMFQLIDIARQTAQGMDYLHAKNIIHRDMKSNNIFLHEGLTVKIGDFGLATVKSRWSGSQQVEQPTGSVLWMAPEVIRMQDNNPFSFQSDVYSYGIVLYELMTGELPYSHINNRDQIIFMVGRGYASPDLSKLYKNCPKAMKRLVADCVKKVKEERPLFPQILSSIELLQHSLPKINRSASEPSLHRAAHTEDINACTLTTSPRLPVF
(§3) (1) Consecutive Signal Transduction Reaction
(§4) To a centrifugation tube, 20 μl of a dilution solvent (20 mM MOPS, pH 7.2, 25 mM (3-glycerol phosphate, 5 mM EGTA, 1 mM sodium orthovanadate, 1 mM dithiothreitol) and 20 μl of a Mg/ATP mixture (500 μM ATP and 75 mM magnesium chloride) were added. Then, each of the derivative compounds of formula 1 was added. As a control, 1 ng of activated raf, 0.4 ng of inactivated MEK1 and 1 μg of inactivated MAPK2 were added without adding Example compounds. The solutions in the tube were concentrated at the bottom of the tube by centrifugation, and then allowed to react at 30° C. for 30 minutes, and 4 μl of the mixture solution was taken and used in the next experimental step.
(§5) (2) Phosphorylation of Substrate Protein MBP by MAPK2
(§6) To 4 μl of the mixture solution taken in (1), 10 μl of a dilution solvent, 20 μg of MBP as a substrate, and 10 μl of diluted [γ-32P]ATP (1 μCi/μL) were added. The solutions in the tube were concentrated at the bottom of the tube by centrifugation, and then allowed to react at 30° C. for 30 minutes. 25 μl of the reaction solution was carefully placed on the center of 2 cm×2 cm P81 filter paper for 30 seconds. Next, the filter paper was washed three times with 0.75% phosphoric acid solution for 10 minutes each time and washed once with acetone for 5 minutes. Next, the filter paper was transferred into a scintillation vial, and 5 ml of a scintillation cocktail was added thereto. Raf activity inhibition rate (IC50) was measured by reading the radioactivity with a scintillation counter in comparison with the control.

The next assay deals with B-Raf (Homo sapiens (Human), UniProt P15056). Described as above. It is filed as biochemical. Here is the method:
as §2, §3, §4, §5, §6

A further assay concerns the target B-Raf V600E (Homo sapiens (Human), UniProt P15056, V600E). Described as above. In kind it is biochemical. As for the experimental part:
as §2, §3, §4, §5, §6

Assay [2] concerns LS513 human colorectal cancer cell line xenograft. Briefly: Antitumor effect on human colorectal cancer LS513 cell line xenograft. It is filed as in vivo, Balb/c nu/nu nude mice. As to conditions: oral. For orientation: In xenograft studies the graft and the host belong to different species.
For assay [3] the test system is unchanged. The assay is described as above. It is filed as in vivo, Balb/c nu/nu nude mice. As to conditions: oral, twice a day, 60 mg/kg or 30 mg/kg (dose not specified per compound), 14 days. The source says:
In this experiment, 5 to 6-week-old female Balb/c nu/nu nude mice (weighed 18 to 20 g) were used. The mice were provided from Nara Biotech Co., Ltd. During the experiment, all the animals were housed on a mouse constant temperature/constant humidity shelf (Individually Ventilated Cages System, LAB & BIO).
Each cage (37.2 cm length×19.2 cm width×13.1 cm height) was sterilized with a sterilizer, and eight mice were received in each cage. The mice were maintained in a hygienic environment controlled to a temperature of 20 to 24° C. and a humidity of 40 to 70% with a 12-hr light/12-hr dark cycle. The mice were allowed to access sterilized feed and drinking water ad libitum. The care and treatment of these animals were carried out according to the Laboratory Animal Care Guidelines of Samjin Pharmaceutical Co., Ltd.
The mice were acclimated to the housing facility for 1 week, and then 0.1 mL of a cell suspension containing 1×10^7 cells was injected subcutaneously into the right flank of each mouse. After cell transplantation, the volume of the formed tumor was measured, and mice with formed tumors having a volume of 150 mm^3 or more were randomly divided into groups (each consisting of 7 to 8 animals) for treatment with the test compounds and a control. […] Administration of the drugs was continued for 14 days. […] At 3-day intervals from the starting day of the administration, the long axis and short axis of the tumor were measured with digital vernier calipers, and the tumor volume was calculated using the following equation and recorded: Tumor volume (TV)=Long axis×short axis^2/2.
Tumor growth inhibition for absolute tumor volume was calculated using the following equation. In the following equation, V0 is the tumor volume on the first day of drug administration (day 0), and Vt is the tumor volume after last drug administration.

Like-named read-outs stand apart in the source and are kept apart here. Where only a bound is given, the exact number is not on record here.

B-Raf, sequence (P15056 whole entry): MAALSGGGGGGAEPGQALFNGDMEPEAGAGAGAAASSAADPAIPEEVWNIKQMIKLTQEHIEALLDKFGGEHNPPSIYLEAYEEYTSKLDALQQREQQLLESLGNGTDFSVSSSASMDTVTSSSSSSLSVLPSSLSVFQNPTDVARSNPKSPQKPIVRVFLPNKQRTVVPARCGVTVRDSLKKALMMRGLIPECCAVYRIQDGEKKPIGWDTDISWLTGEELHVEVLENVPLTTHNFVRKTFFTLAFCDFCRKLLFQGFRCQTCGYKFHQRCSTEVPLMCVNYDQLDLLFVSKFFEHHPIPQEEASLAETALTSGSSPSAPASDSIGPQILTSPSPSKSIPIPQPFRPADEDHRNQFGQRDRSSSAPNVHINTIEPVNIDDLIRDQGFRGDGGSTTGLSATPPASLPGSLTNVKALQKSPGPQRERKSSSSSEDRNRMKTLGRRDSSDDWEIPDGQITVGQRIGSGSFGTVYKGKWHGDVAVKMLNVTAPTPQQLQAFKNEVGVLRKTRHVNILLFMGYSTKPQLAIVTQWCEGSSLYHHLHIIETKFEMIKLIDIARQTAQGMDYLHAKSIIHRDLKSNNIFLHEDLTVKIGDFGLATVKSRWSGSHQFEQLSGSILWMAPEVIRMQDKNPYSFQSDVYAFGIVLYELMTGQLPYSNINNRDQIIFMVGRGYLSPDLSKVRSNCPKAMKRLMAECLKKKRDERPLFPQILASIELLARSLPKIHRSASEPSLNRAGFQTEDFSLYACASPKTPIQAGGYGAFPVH
B-Raf V600E, sequence (P15056 whole entry V600E): as the sequence (P15056 whole entry) above, with V600E counted along it

Turning to `O=C(Nc1cc(Nc2ncccc2-c2ncnc3[nH]cnc23)ccc1F)c1cc(C(F)(F)F)cc(C(F)(F)F)c1` [Example 65, N-2-Fluoro-5-[3-(9H-Purin-6-Yl)Pyridin-2-Ylamino)Phenyl-3,5-Bis(Trifluoromethyl)Benzamide], the IC50 in assay [1] stood at 208 nM; in the assay with WiDR BRAF V600E (colon), 247 nM; in the assay with HUVEC (VEGF), 850 nM; with LS513 KRAS G12V (colon) (Table 4), 100 nM; in the assay with LS513 KRAS G12V (colon) (Table 5), 322 nM; in the assay with SW620 KRAS G12V (colon), 700 nM. Further, the IC50 turned out to be 257 nM on C-Raf, 331 nM against B-Raf and 187 nM on B-Raf V600E. Besides, the “antitumor effect (tumor growth inhibition)” value in assay [2] (50 mg/kg, once a day, 13 days) was determined as 95.42%.
Take `Cc1cn(-c2cc(NC(=O)Nc3ccc(F)c(Nc4ncccc4-c4ncnc5[nH]cnc45)c3F)cc(C(F)(F)F)c2)cn1` [Example 59, 1-(3-(3-(9H-Purin-6-Yl)Pyridin-2-Ylamino)-2,4-Difluorophenyl)-3-(3-(4-Methyl-1H-Imidazol-1-Yl)-5-(Trifluoromethyl)Phenyl)Urea]: in the assay on LS513 KRAS G12V (colon) (Table 4), the IC50 was 2140 nM. Further, the “antitumor effect (tumor growth inhibition) compared to the vehicle control” value in [3] is recorded as 83.51%.
Take `CCN1CCN(Cc2ccc(NC(=O)Nc3ccc(F)c(Nc4ncccc4-c4ncnc5[nH]cnc45)c3F)cc2C(F)(F)F)CC1` [Example 60, 1-(3-(3-(9H-Purin-6-Yl)Pyridin-2-Ylamino)-2,4-Difluorophenyl)-3-(4-((4-Ethylpiperazin-1-Yl)Methyl)-3-(Trifluoromethyl)Phenyl)Urea]: the IC50 in the assay with LS513 KRAS G12V (colon) (Table 4) is > 10000 nM. The “antitumor effect (tumor growth inhibition) compared to the vehicle control” value in assay [3] came out at 69.06%.
Consider `CC(C)(C#N)c1cc(F)cc(C(=O)Nc2cc(Nc3ncccc3-c3ncnc4[nH]cnc34)ccc2F)c1` [Example 33, N-(5-(3-(9H-Purin-6-Yl)Pyridin-2-Ylamino)-2-Fluorophenyl)-3-(2-Cyanopropan-2-Yl)-5-Fluorobenzamide], for which the IC50 in the assay on LS513 KRAS G12V (colon) (Table 4) amounted to 199 nM; against C-Raf, 24 nM; against B-Raf, 94 nM; on B-Raf V600E, 33 nM. The “antitumor effect (tumor growth inhibition) compared to the vehicle control” value in assay [3] amounted to 96.0%.
Turning to `O=C(Nc1cc(Nc2ncccc2-c2ncnc3[nH]cnc23)ccc1F)c1cc(Cl)cc(C(F)(F)F)c1` [Example 135, N-5-[(3-(9H-purin-6-yl)pyridin-2-yl)amino]-2-fluorophenyl-3-chloro-5-(trifluoromethyl)benzamide], the concentration for half-maximal inhibition (IC50) was found to be 74 nM in [1]; 68 nM with WiDR BRAF V600E (colon); 733 nM in the assay with HUVEC (VEGF); 80 nM in the assay with LS513 KRAS G12V (colon) (Table 4); 88 nM with LS513 KRAS G12V (colon) (Table 5); 317 nM in the assay on SW620 KRAS G12V (colon). In addition, the values for the IC50 against C-Raf, against B-Raf and against B-Raf V600E were 34 nM, 161 nM and 86 nM, respectively. For the same compound, the “antitumor effect (tumor growth inhibition)” value in assay [2] (12.5 mg/kg, 21 days) stood at 52.36%; in assay [2] (25 mg/kg, 21 days) it was 74.73%; in assay [2] (50 mg/kg, 21 days), 86.85%; in [2] (50 mg/kg, once a day, 13 days), 92.66%.
For `CC(C)(C#N)c1cc(C(=O)Nc2cc(Nc3ncccc3-c3ncnc4[nH]cnc34)ccc2F)cc(C(F)(F)F)c1` [Example 154, N-5-[(3-(9H-purin-6-yl)pyridin-2-yl)amino]-2-fluorophenyl-3-(2-cyanopropan-2-yl)-5-(trifluoromethyl)benzamide], the IC50 in the assay on WiDR BRAF V600E (colon) was determined as 97 nM; in the assay on LS513 KRAS G12V (colon) (Table 4), 326 nM; in the assay with LS513 KRAS G12V (colon) (Table 5), 326 nM. Moreover, the “antitumor effect (tumor growth inhibition)” value in assay [2] (50 mg/kg, once a day, 13 days) is listed as 83.19%.
Turning to `Cc1cc(C(=O)Nc2cc(Nc3ncccc3-c3ncnc4[nH]cnc34)ccc2F)cc(C(F)(F)F)c1` [Example 139, N-5-[(3-(9H-purin-6-yl)pyridin-2-yl)amino]-2-fluorophenyl-3-methyl-5-(trifluoromethyl)benzamide], the IC50 stood at 116 nM in the assay on WiDR BRAF V600E (colon), 99 nM in the assay with LS513 KRAS G12V (colon) (Table 4) and 96 nM with LS513 KRAS G12V (colon) (Table 5). The “antitumor effect (tumor growth inhibition)” value in assay [2] (50 mg/kg, once a day, 13 days) stood at 91.04%.
With `N#CCc1cccc(NC(=O)c2ccc(F)c(Nc3ncccc3-c3ncnc4[nH]cnc34)c2)c1` [Example 77, N-(3-Cyanomethylphenyl)-4-Fluoro-3-[3-(9H-Purin-6-Yl)Pyridin-2-Ylamino]Benzamide], in the assay with LS513 KRAS G12V (colon) (Table 4), the half-inhibitory concentration (IC50) came to 145000 nM.
With `CC(C)(C#N)c1cccc(NC(=O)c2cc(Nc3ncccc3-c3ncnc4[nH]cnc34)ccc2F)c1` [Example 112, 5-[3-(9H-Purin-6-Yl)Amino]-N-[3-(2-Cyanopropan-2-Yl)Phenyl]-2-Fluorobenzamide], in the assay with LS513 KRAS G12V (colon) (Table 4), the IC50 was > 10000 nM.
`CN1CCN(c2cc(C(=O)Nc3ccc(F)c(Nc4ncccc4-c4ncnc5[nH]cnc45)c3F)cc(C(F)(F)F)c2)CC1` [Example 10, N-(3-(3-(9H-purin-6-yl)pyridin-2-ylamino)-2,4-difluorophenyl)-3-(4-methylpiperazin-1-yl)-5-(trifluoromethyl)benzamide]: in the assay on LS513 KRAS G12V (colon) (Table 4), the IC50 was determined as 1170 nM.
`COc1cc(C(=O)Nc2cc(Nc3ncccc3-c3ncnc4[nH]cnc34)ccc2F)cc(C(F)(F)F)c1` [Example 63, N-2-Fluoro-5-[3-(9H-Purin-6-Yl)Pyridin-2-Ylamino)Phenyl-3-Methoxy-5-(Trifluoromethyl)Benzamide]: in the assay with LS513 KRAS G12V (colon) (Table 4), the concentration for half-maximal inhibition (IC50) was found to be 690 nM. The “antitumor effect (tumor growth inhibition) compared to the vehicle control” value in assay [3] came out at 57.9%.
Regarding `Cc1cccc(C(=O)Nc2ccc(F)c(Nc3ncccc3-c3ncnc4[nH]cnc34)c2F)c1` [Example 47, N-(3-(3-(9H-Purin-6-Yl)Pyridin-2-Ylamino)-2,4-Difluorophenyl)-3-Methylbenzamide], in the assay with LS513 KRAS G12V (colon) (Table 4), the 50% inhibitory concentration (IC50) is > 10000 nM.
On the same count and under the same terms, to `CC(C)(C(N)=O)c1cccc(C(=O)Nc2ccc(F)c(Nc3ncccc3-c3ncnc4[nH]cnc34)c2F)c1` [Example 22, N-(3-(3-(9H-purin-6-yl)pyridin-2-ylamino)-2,4-difluorophenyl)-3-(1-amino-2-methyl-1-oxopropan-2-yl)benzamide] belongs > 10000 nM.
On the same count and under the same terms, to `CC(C)(C#N)c1cccc(C(=O)Nc2cc(Nc3ncccc3-c3ncnc4[nH]ccc34)c(F)cc2F)c1` [Example 84, N-(5-(3-(7H-Pyrrolo[2,3-d]Pyrimidin-4-Yl)Pyridin-2-Ylamino)-2,4-Diflurophenyl)-3-(2-Cyanopropan-2-Yl)Benzamide] belongs 118 nM.

As a reminder, the IC50 is the concentration that inhibits the measured activity by half.

The values are drawn from patent US10844062B2, “Pyridine derivative inhibiting RAF kinase and vascular endothelial growth factor receptor, method for preparing same, pharmaceutical composition containing same, and use thereof” (SAMJIN PHARMACEUTICAL CO., LTD., priority 2016, dated 2020).
